Data on eleven molecules can be found in paper PMC11497058, “Ginsenoside Rg3 Restores Mitochondrial Cardiolipin Homeostasis via GRB2 to Prevent Parkinson's Disease” (Advanced Science, 2024).

Each structure is given as a SMILES string. Where a name gives a salt, the structure may show the parent alone.

One assay deals with GRB2 (Homo sapiens, UniProt P62993). In words: biochemical. Further details: Surface plasmon resonance screen of compounds binding to GRB2, KD. The source says:
To further validate the universal impact of TRKA‐GRB2 axis‐targeted molecular in enhancing CL expression and ameliorating PD, we employed Surface Plasmon Resonance (SPR) technology^[ [58] ^] to screen compounds that bind to GRB2 (Figure 8a). Subsequently, we identified 11 compounds with a KD value at the […] (Table S9, Supporting Information). The viability of SH‐SY5Y cells exposed to mpp+ or 6‐OHDA increased upon treatment with TDF and [compound left out] (Figure S13a and b, Supporting Information). TDF acts as a prodrug of tenofovir, a nucleotide reverse transcriptase inhibitor.^[ [59] ^] On the other hand, [compound left out] is specially formulated for ophthalmological steroid‐based treatments.^[ [60] ^] Considering its oral administration capability, we selected TDF for further research (Figure S13c and d, Supporting Information). TDF facilitated the clearance of overexpressed A53T‐αSyn in SH‐SY5Y cells (Figure S13e and f, Supporting Information) and promoted the interaction between GRB2 and TRKA without affecting the interaction between GRB2 and EGFR in these cells (Figure 8b–d). Treatment with TDF enhanced CRLS1 expression and restored the decreased mitochondrial CL levels caused by A53T‐αSyn in SH‐SY5Y cells. However, knockdown of GRB2 or TRKA in SH‐SY5Y cells attenuated TDF‐induced effect (Figure 8e–g). Moreover, TDF increased TRKA phosphorylation, ERK phosphorylation, and CRLS1 expression, while GW441756 […] these changes (Figure S13g–j, Supporting Information). When SCH772984 was employed, it blocked the ability of TDF to increase ERK phosphorylation and CRLS1 expression (Figure S13k–m, Supporting Information). The impairment of exercise ability was alleviated following TDF (80 mg kg^−1) treatment, resulting in an increase in the distance travelled by A53T‐αSyn‐treated mice (Figure 8h,i). […] Western blotting was performed to evaluate the expression of TRKA and EGFR in cell lysates immunoprecipitated with an anti‐GRB2 antibody (b). Quantification of TRKA levels (c) and EGFR levels (d). e,f) Representative western blot images of CRLS1, GRB2, TRKA in SH‐SY5Y cells treated with TDF (10 µM) or DMSO (0.1%) for 24 h after transfection with Scramble, GRB2 or TRKA siRNAs for 24 h. Quantification of CRLS1 levels (f). g) SH‐SY5Y cells were treated with TDF (10 µM) or DMSO (0.1%) for 24 h after transfection with Scramble, GRB2 or TRKA siRNAs for 24 h. Quantification of mitochondrial CL in SH‐SY5Y cells. Three independent experiments per condition were performed in (b–g). h) Movement track in the open field test. i) Total distance travelled in the open field. j) Time required to descend the pole. k) Time required to fall off the rotarod. (n = 10 mice per group in (h–k). l) Immunohistochemical staining of TH^+ neurons (scale bar = 100 µm). m) Quantification of TH^+ neurons. (n = 3 mice per group in l, m). Data are normalised to those of the DMSO group (c,d) and the Scramble_DMSO group (f). Mean ± standard error of the mean is presented. *p < 0.05, **p < 0.01, ***p < 0.001, ****p < 0.0001, ns, not significant. Student's two‐tailed unpaired t‐test (c,d), two‐way ANOVA with Sidak's multiple comparisons test (f,g,i,j,k and m). Source data are provided in the Source Data file.

Assay [1] concerns the target T1, Growth Factor Receptor-Bound Protein 2 (GRB2) (Homo sapiens, UniProt P62993).
T1 construct: Recombinant His-tagged GRB2 (pET-28a, E. coli)
Put plainly: bio-layer interferometry (ForteBio Octet); supported by thermal shift assay (CETSA) and LiP-SMap. It is filed as binding. A general note: Biolayer interferometry detects binding as a change in optical thickness at a sensor tip.

GRB2, sequence (P62993 whole entry): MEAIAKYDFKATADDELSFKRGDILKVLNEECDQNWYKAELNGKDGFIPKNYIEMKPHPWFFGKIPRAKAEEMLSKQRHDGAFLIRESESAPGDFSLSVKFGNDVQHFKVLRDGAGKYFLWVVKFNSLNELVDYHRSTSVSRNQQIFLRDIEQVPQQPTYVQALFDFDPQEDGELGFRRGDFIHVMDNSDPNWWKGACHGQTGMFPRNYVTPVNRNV
T1 sequence (P62993 whole entry): as above

Broadly, the Kd is the concentration at which binding is half-saturated. `CC(C)OC(=O)OCOP(=O)(CO[C@H](C)Cn1cnc2c(N)ncnc21)OCOC(=O)OC(C)C` [TDF, Tenofovir Disoproxil Fumarate] had an equilibrium dissociation constant (Kd) on GRB2 of 74.3 nM. On the same count and under the same terms, in the case of `NC(=O)N1c2ccccc2CC(=O)c2ccccc21` [Oxcarbazepine] it was 241 nM; in that of `O=C(O)c1ccc2nc(-c3cc(Cl)cc(Cl)c3)oc2c1` [tafamidis], 3730 nM. As to `CC(C)=CCC[C@](C)(O)[C@H]1CC[C@]2(C)[C@@H]1[C@H](O)C[C@@H]1[C@@]3(C)CC[C@H](O[C@@H]4O[C@H](CO)[C@@H](O)[C@H](O)[C@H]4O[C@@H]4O[C@H](CO)[C@@H](O)[C@H](O)[C@H]4O)C(C)(C)[C@@H]3CC[C@]12C` [Rg3, Ginsenoside Rg3], the equilibrium dissociation constant (Kd) in assay [1] worked out at 869 nM. As for `COC(c1ccccc1)(c1ccccc1)[C@H](Oc1nc(C)cc(C)n1)C(=O)O` [Ambrisentan], binding on GRB2 was characterised by a dissociation constant (Kd) of 192 nM. On GRB2, `CCCC(=O)O[C@]1(C(=O)CCl)[C@@H](C)C[C@H]2[C@@H]3CCC4=CC(=O)C=C[C@]4(C)[C@@]3(F)C(=O)C[C@@]21C` [Clobetasone butyrate] gave an equilibrium dissociation constant (Kd) of 100 nM. For the molecule `CC(C)N(CCNC(=O)CN1CCCC1=O)C(C)C` [Pramiracetam], on GRB2, the Kd amounted to 99.6 nM.

In turn, `C/C(=C\CO)CCC[C@H](C)CCC[C@H](C)CCCC(C)C` [Phytol] gave a Kd at GRB2 of 1470 nM.

In turn, `O=C1c2ccccc2-c2n[nH]c3cccc1c23` [SP600125] had a Kd at GRB2 of 262 nM. As for `CC(N)C12CC3CC(CC(C3)C1)C2` (centres unmarked) [Rimantadine], on GRB2, the dissociation constant (Kd) stood at 160 nM. With `Nc1nc(=O)n([C@@H]2CS[C@H](CO)O2)cc1F` [Emtricitabine], at GRB2, the affinity, expressed as Kd, was 15.2 nM.
